“And” between values parts separate entries of the source, which are not always exact repeats. Equal entries are not always repeated.
Assays:
[1] = tested on: invasion of colorectal cancer cells; assay: In vivo relative invation (invasion; EV and KITENIN controls, no method described); settings: relative to EV (=1); KIT = KITENIN
KAI1 promoter = KAI1 promoter luciferase reporter assay in transfected Caco2 cells; assay type: cell-based, human; settings: Homo sapiens, Caco-2, 16 h, 1 μM compound, 16 hours, transfected Caco2 cells, luciferase activity relative to DMSO control (=1); read-out: Relative KAI promoter activity
Method: Experiments were conducted to evaluate the metastasis-related promoter activity-increasing effects of the compounds according to the present invention. Specifically, the KAI1 promoter reporter vector was used. In this case, the pRL-TK vector, a vector expressing renilla luciferase, was used as an internal control indicating the transfection efficiency in each transfected well.
First, 24 hours before transfection, 2×10^6 human colon cancer cell line, Caco2) cells were cultured in 10 ml of DMEM containing 10% FBS and 1% penicillin/streptomycin on a 100-mm-diameter plate, and then transformed with 5 μg of a pRL-TK vector mixture containing a transfection reagent and the KAI1 promoter, and then cultured in a 5% CO2 incubator at 37° C. for 48 hours. Thereafter, the adherent cells were detached using trypsin and counted using a hemacytometer, and then 5×10^3 transfected Caco2 cells in 100 μl of DMEM containing 10% FBS and 1% penicillin/streptomycin were seeded into each well of a 96-well plate and cultured in a 5% CO2 incubator at 37° C. for 24 hours. Next, 1 μM of each of the 305 compounds prepared in Examples 1 to 305 was added to each well, and after 16 hours, 100 μl of a lysis buffer for analysis containing a luciferase substrate was added, and the cells were lysed with stirring for 20 minutes. After completion of lysis, the cells were measured for luciferase activity using a luciferase reporter assay system (Promega, USA). […] In addition, data were analyzed at a significance level of p<0.05 by one-way ANOVA (Tukey's HSD), and SPSS 17.0 (Chicago, USA) statistical program was used. In Table 14 to 20, PHA is the PHA-665752, and KIT is KITENIN.

For `O=C(CNC(=O)c1cc(Cl)cc(Cl)c1)c1ccc(Cl)cc1` [Example 79, 3,5-dichloro-N-(2-(4-chlorophenyl)-2-oxoethyl)benzamide], the “In vivo relative invation” value [1] was 1.102 and the fold induction at 1 µM (KAI1 promoter) was 1.03.

For `CN(C)c1ccc(C(=O)CNS(=O)(=O)Cc2ccccc2)cc1` [Example 110, N-(2-(4-(dimethylamino)phenyl)-2-oxoethyl)-1-phenylmethanesulfonamide], the “In vivo relative invation” value [1] was 1.009 and the fold induction at 1 µM (KAI1 promoter) was 1.49.

With `O=C(CNC(=O)c1ccccc1OC1CCN(S(=O)(=O)c2ccc(F)cc2)CC1)c1ccccc1` [Example 184, 2-((1-((4-fluorophenyl)sulfonyl)piperidin-4-yl)oxy)-N-(2-oxo-2-phenylethyl)benzamide] the “In vivo relative invation” value [1] was 1.114 and the fold induction at 1 µM (KAI1 promoter) was 0.98.

With `CN(CCO)Cc1ccc(C(=O)NCC(=O)c2ccccc2)cc1` [Example 267, 4-(((2-hydroxyethyl) (methyl)amino)methyl)-N-(2-oxo-2-phenylethyl)benzamide] the “In vivo relative invation” value [1] was 0.9046 and the fold induction at 1 µM (KAI1 promoter) was 3.56.

In the case of `O=C(CNS(=O)(=O)Cc1ccccc1)c1ccc(Cl)cc1` [Example 70, N-(2-(4-chlorophenyl)-2-oxoethyl)-1-phenylmethanesulfonamide], the “In vivo relative invation” value [1] is reported as 1.274 and the fold induction at 1 µM (KAI1 promoter) is reported as 0.81.

With `O=C(CNC(=O)c1ccccc1F)c1ccc(N2CCOCC2)cc1` [Example 137, 2-fluoro-N-(2-(4-morpholinophenyl)-2-oxoethyl)benzamide] the “In vivo relative invation” value [1] was 1.231 and the fold induction at 1 µM (KAI1 promoter) was 1.19.

For `CCC(=O)NCC(=O)c1ccc(Cl)cc1` [Example 54, N-(2-(4-chlorophenyl)-2-oxoethyl) propionamide], the “In vivo relative invation” value [1] was 1.083 and the fold induction at 1 µM (KAI1 promoter) was 0.7.

`O=C(CNS(=O)(=O)c1ccc(Cl)cc1)c1ccc(Cl)cc1` [Example 69, 4-chloro-N-(2-(4-chlorophenyl)-2-oxoethyl)benzenesulfonamide] was tested, and the “In vivo relative invation” value [1] was 1.095 and the fold induction at 1 µM (KAI1 promoter) was 0.84.

`O=C(CNC(=O)c1ccc(C(F)(F)F)cc1)c1ccc(Cl)cc1` [Example 75, N-(2-(4-chlorophenyl)-2-oxoethyl)-4-(trifluoromethyl)benzamide] was tested, and the “In vivo relative invation” value [1] was 1.283 and the fold induction at 1 µM (KAI1 promoter) was 0.71.

`O=C(CNC(=O)c1ccccc1CN1CCC(N2CCCCC2)CC1)c1ccccc1` [Example 301, 2-([1,4′-bipiperidin]-1′-ylmethyl)-N-(2-oxo-2-phenylethyl)benzamide] was tested, and the “In vivo relative invation” value [1] was 1.146 and the fold induction at 1 µM (KAI1 promoter) was 1.61.

With `CC(=O)Oc1ccccc1C(=O)N1CCC(Oc2ccccc2C(=O)NCC(=O)c2ccccc2)CC1` [Example 176, 2-(4-(2-((2-oxo-2-phenylethyl)carbamoyl)phenoxy)piperidine-1-carbonyl)phenylacetate] the “In vivo relative invation” value [1] was 1.26 and the fold induction at 1 µM (KAI1 promoter) was 1.08.

With `CCC(=O)NCC(=O)c1ccc(N2CCOCC2)cc1` [Example 142, N-(2-(4-morpholinophenyl)-2-oxoethyl)propionamide] the “In vivo relative invation” value [1] was 1.8 and the fold induction at 1 µM (KAI1 promoter) was 1.12.

For `COc1ccc(C(=O)NCC(=O)c2ccccc2)cc1` [Example 12, 4-methoxy-N-(2-oxo-2-phenylethyl)benzamide], the “In vivo relative invation” value [1] was 1.357 and the fold induction at 1 µM (KAI1 promoter) was 1.75.

For `CN(Cc1ccccc1)Cc1cccc(C(=O)NCC(=O)c2ccccc2)c1` [Example 242, 3-((benzyl(methyl)amino)methyl)-N-(2-oxo-2-phenylethyl)benzamide], the “In vivo relative invation” value [1] was 1.146 and the fold induction at 1 µM (KAI1 promoter) was 1.17.

With `Cc1ccccc1C(=O)NCC(=O)c1ccc(N(C)C)cc1` [Example 96, N-(2-(4-(dimethylamino)phenyl)-2-oxoethyl)-2-methylbenzamide] the “In vivo relative invation” value [1] was 1.141 and the fold induction at 1 µM (KAI1 promoter) was 2.23.

For `COc1cccc(C(=O)CNC(=O)c2ccc(Cl)cc2)c1` [Example 122, 4-chloro-N-(2-(3-methoxyphenyl)-2-oxoethyl)benzamide], the “In vivo relative invation” value [1] was 1.374 and the fold induction at 1 µM (KAI1 promoter) was 1.65.

`CS(=O)(=O)N1CCC(Oc2ccccc2C(=O)NCC(=O)c2ccccc2)CC1` [Example 183, 2-((1-(methylsulfonyl)piperidin-4-yl)oxy)-N-(2-oxo-2-phenylethyl)benzamide] was tested, and the “In vivo relative invation” value [1] was 1.194 and the fold induction at 1 µM (KAI1 promoter) was 0.96.

For `Cc1ccc(S(=O)(=O)NCC(=O)c2ccccc2)cc1` [Example 27, 4-methyl-N-(2-oxo-2-phenylethyl)benzenesulfonamide], the “In vivo relative invation” value [1] was 1.044 and the fold induction at 1 µM (KAI1 promoter) was 1.31.

For `O=C(CNC(=O)c1cccs1)c1ccc(Cl)cc1` [Example 58, N-(2-(4-chlorophenyl)-2-oxoethyl)thiophene-2-carboxamide], the “In vivo relative invation” value [1] was 1.244 and the fold induction at 1 µM (KAI1 promoter) was 0.91.

For `O=C(CNC(=O)c1ccccc1OC1CCN(C(=O)c2ccc(C(F)(F)F)cc2)CC1)c1ccccc1` [Example 193, N-(2-oxo-2-phenylethyl)-2-((1-(4-(trifluoromethyl)benzoyl)piperidin-4-yl)oxy)benzamide], the “In vivo relative invation” value [1] was 1.214 and the fold induction at 1 µM (KAI1 promoter) was 0.82.

For `O=C(CNC(=O)c1ccccc1CN1CCCc2ccccc21)c1ccccc1` [Example 297, 2-((3,4-dihydroquinolin-1(2H)-yl)methyl)-N-(2-oxo-2-phenylethyl)benzamide], the “In vivo relative invation” value [1] was 1.231 and the fold induction at 1 µM (KAI1 promoter) was 1.33.

For `CCCCN(CC)Cc1ccc(C(=O)NCC(=O)c2ccccc2)cc1` [Example 273, 4-((butyl(ethyl)amino)methyl)-N-(2-oxo-2-phenylethyl)benzamide], the “In vivo relative invation” value [1] was 1.171 and the fold induction at 1 µM (KAI1 promoter) was 1.2.

For `O=C(CNC(=O)c1cccc(CN2CCN(c3ccccn3)CC2)c1)c1ccccc1` [Example 240, N-(2-oxo-2-phenylethyl)-3-((4-(pyridin-2-yl)piperazin-1-yl)methyl)benzamide], the “In vivo relative invation” value [1] was 1.1 and the fold induction at 1 µM (KAI1 promoter) was 1.3.

With `CN(Cc1ccc(C(=O)NCC(=O)c2ccccc2)cc1)c1ccccc1` [Example 262, 4-((methyl (phenyl)amino)methyl)-N-(2-oxo-2-phenylethyl)benzamide] the “In vivo relative invation” value [1] was 1.09 and the fold induction at 1 µM (KAI1 promoter) was 1.54.

With `O=C(CNC(=O)c1ccccc1OC1CCN(C(=O)c2cccs2)CC1)c1ccccc1` [Example 168, N-(2-oxo-2-phenylethyl)-2-((1-(thiophene-2-carbonyl)piperidin-4-yl)oxy)benzamide] the “In vivo relative invation” value [1] was 1.199 and the fold induction at 1 µM (KAI1 promoter) was 1.05.

With `COc1cccc(C(=O)CNC(=O)c2cccc(CN3CCN(c4ccccn4)CC3)c2)c1` [Example 284, N-(2-(3-methoxyphenyl)-2-oxoethyl)-3-((4-(pyridin-2-yl)piperazin-1-yl)methyl)benzamide] the “In vivo relative invation” value [1] was 1.276 and the fold induction at 1 µM (KAI1 promoter) was 1.44.

In the case of `O=C(CNS(=O)(=O)c1ccccc1)c1ccc(N2CCOCC2)cc1` [Example 148, N-(2-(4-morpholinophenyl)-2-oxoethyl)benzenesulfonamide], the “In vivo relative invation” value [1] is reported as 1.844 and the fold induction at 1 µM (KAI1 promoter) is reported as 1.44.

`COc1ccc(S(=O)(=O)NCC(=O)c2ccc(N3CCOCC3)cc2)cc1` [Example 150, 4-methoxy-N-(2-(4-morpholinophenyl)-2-oxoethyl)benzenesulfonamide] was tested, and the “In vivo relative invation” value [1] was 1.071 and the fold induction at 1 µM (KAI1 promoter) was 1.14.

`O=C(CNC(=O)c1cc(C(F)(F)F)cc(C(F)(F)F)c1)c1ccccc1` [Example 29, N-(2-oxo-2-phenylethyl)-3,5-bis(trifluoromethyl)benzamide] was tested, and the “In vivo relative invation” value [1] was 1.026 and the fold induction at 1 µM (KAI1 promoter) was 0.9.

In the case of `Cc1cccc(C(=O)NCC(=O)c2ccc(N3CCOCC3)cc2)c1` [Example 141, 3-methyl-N-(2-(4-morpholinophenyl)-2-oxoethyl)benzamide], the “In vivo relative invation” value [1] is reported as 1.393 and the fold induction at 1 µM (KAI1 promoter) is reported as 1.06.

`O=C(CNS(=O)(=O)c1cccc([N+](=O)[O-])c1)c1ccccc1` [Example 21, 3-nitro-N-(2-oxo-2-phenylethyl)benzenesulfonamide] was tested, and the “In vivo relative invation” value [1] was 1.099 and the fold induction at 1 µM (KAI1 promoter) was 0.99.

`O=C(CNC(=O)c1ccccc1OC1CCN(C(=O)c2ccc(Br)cc2)CC1)c1ccccc1` [Example 181, 2-((1-(4-bromobenzoyl)piperidin-4-yl)oxy)-N-(2-oxo-2-phenylethyl)benzamide] was tested, and the “In vivo relative invation” value [1] was 1.194 and the fold induction at 1 µM (KAI1 promoter) was 1.06.

`CCCCC(=O)NCC(=O)c1cccc(OC)c1` [Example 128, N-(2-(3-methoxyphenyl)-2-oxoethyl)pentanamide] was tested, and the “In vivo relative invation” value [1] was 1.179 and the fold induction at 1 µM (KAI1 promoter) was 1.1.

For `COc1cccc(C(=O)CNC(=O)c2cccc(CN3CCN(CCO)CC3)c2)c1` [Example 292, 3-((4-(2-hydroxyethyl)piperazin-1-yl)methyl)-N-(2-(3-methoxyphenyl)-2-oxoethyl)benzamide], the “In vivo relative invation” value [1] was 1.238 and the fold induction at 1 µM (KAI1 promoter) was 1.45.

With KITENIN the “In vivo relative invation” value [1] was 1.419 and 1.156 and 1.58 and 1.288 and 1.205 and 1.369.

Work on `Cc1[nH]c(/C=C2\C(=O)Nc3ccc(S(=O)(=O)Cc4c(Cl)cccc4Cl)cc32)c(C)c1C(=O)N1CCC[C@@H]1CN1CCCC1` [PHA, PHA-665752, reference compound] yielded a fold induction at 1 µM (KAI1 promoter) of 1.43.

— patent publication US20230150924A1, “NOVEL COMPOUND HAVING CANCER METASTASIS INHIBITORY ACTIVITY, PREPARATION METHOD THEREFOR, AND PHARMACEUTICAL COMPOSITION FOR INHIBITING CANCER METASTASIS AND INVASION OR TREATING COLORECTAL CANCER, COMPRISING COMPOUND” (CELLGENTEK CO., LTD., priority 2019, published 2023)
